Source: patent publication US12275731B2, “Azaindole inhibitors of wild-type and mutant forms of LRRK2” (DANA-FARBER CANCER INSTITUTE, INC., priority 2018, dated 2025)

What was measured:
Experiment in all cases: KinomeScan profiling
Format in all cases: binding
[1] = molecular target: PCTK1 (Homo sapiens, UniProt Q00536); details: PCTK1, 1 μM; read-out: % control
Method in brief: (§1)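 Compounds were screened at 1 μM in DMSO across a 468-kinase KinomeScan panel. Binding was expressed as % control, scaled between a positive control (0%) and DMSO (100%) using luminescence signal. A value under 35% counted as active.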

[2] = molecular target: WEE2 (Homo sapiens, UniProt P0C1S8); details: WEE2, 1 μM; read-out: % control
Chain of WEE2 (P0C1S8 whole entry): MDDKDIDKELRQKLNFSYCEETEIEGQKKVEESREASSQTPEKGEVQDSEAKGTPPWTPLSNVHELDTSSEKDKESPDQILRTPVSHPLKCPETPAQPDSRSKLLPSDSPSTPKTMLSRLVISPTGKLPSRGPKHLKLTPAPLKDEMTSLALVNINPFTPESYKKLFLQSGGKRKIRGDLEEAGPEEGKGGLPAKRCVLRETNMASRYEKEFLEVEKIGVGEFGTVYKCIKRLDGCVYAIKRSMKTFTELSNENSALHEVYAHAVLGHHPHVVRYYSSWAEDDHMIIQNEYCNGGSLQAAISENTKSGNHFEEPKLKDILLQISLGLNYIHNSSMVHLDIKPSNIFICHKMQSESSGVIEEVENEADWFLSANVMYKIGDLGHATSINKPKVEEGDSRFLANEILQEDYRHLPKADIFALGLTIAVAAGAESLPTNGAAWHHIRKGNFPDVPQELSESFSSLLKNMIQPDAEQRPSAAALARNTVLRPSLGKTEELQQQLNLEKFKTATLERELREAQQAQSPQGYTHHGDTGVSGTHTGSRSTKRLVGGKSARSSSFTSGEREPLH
Method in brief: as §1

[3] = molecular target: T1, PIK3CA(E542K) (Homo sapiens, UniProt P42336, E542K); details: read-out: % control
T1 construct: purchased KinomeScan® (panel service)
T1 sequence (P42336 whole entry E542K): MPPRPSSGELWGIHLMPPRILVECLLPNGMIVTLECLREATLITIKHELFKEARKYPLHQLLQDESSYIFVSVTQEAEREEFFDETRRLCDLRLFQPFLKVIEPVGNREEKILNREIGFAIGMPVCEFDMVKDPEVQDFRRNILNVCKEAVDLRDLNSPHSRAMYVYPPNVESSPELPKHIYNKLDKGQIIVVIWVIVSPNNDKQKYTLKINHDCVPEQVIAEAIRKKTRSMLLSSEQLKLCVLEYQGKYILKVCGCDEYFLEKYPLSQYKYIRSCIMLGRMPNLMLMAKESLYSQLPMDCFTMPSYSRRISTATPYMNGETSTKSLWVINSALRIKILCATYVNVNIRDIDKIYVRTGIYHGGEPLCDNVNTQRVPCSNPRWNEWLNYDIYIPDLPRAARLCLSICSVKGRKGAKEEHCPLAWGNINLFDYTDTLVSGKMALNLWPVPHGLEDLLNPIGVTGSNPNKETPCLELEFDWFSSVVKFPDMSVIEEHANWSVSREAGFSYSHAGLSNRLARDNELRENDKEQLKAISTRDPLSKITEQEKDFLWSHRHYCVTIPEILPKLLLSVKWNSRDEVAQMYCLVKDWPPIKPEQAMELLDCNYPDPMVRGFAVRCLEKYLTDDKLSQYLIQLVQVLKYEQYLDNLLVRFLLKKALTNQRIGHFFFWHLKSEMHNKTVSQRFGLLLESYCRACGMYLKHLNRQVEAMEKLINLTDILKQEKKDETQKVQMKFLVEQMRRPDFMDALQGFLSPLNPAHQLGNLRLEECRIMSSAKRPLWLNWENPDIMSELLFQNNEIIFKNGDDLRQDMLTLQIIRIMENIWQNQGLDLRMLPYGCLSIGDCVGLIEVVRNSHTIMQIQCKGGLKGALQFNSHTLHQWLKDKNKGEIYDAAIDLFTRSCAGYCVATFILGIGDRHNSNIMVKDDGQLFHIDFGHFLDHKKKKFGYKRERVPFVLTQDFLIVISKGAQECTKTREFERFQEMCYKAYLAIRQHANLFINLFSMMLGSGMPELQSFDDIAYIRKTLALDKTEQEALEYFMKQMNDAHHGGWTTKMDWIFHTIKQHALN
Method in brief: as §1

[4] = molecular target: T2, SGK2 (Homo sapiens, UniProt Q9HBY8); details: SGK2, 1 μM; read-out: % control
T2 construct: purchased KinomeScan® (panel service)
T2 sequence (Q9HBY8 1-367): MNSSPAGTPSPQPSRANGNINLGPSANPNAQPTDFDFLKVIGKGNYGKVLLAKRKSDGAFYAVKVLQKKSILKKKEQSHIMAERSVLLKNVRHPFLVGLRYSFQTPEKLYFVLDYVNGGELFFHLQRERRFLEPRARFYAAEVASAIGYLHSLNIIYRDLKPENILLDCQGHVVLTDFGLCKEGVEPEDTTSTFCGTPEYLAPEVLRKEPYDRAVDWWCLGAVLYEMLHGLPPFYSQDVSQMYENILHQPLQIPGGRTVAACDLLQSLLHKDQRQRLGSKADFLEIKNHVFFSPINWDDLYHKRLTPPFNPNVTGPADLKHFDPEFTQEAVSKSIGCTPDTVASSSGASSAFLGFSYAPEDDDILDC
Method in brief: as §1

[5] = molecular target: T3, IKK-epsilon (Homo sapiens, UniProt Q14164); details: read-out: % control
T3 construct: purchased KinomeScan®
T3 sequence (Q14164 1-716): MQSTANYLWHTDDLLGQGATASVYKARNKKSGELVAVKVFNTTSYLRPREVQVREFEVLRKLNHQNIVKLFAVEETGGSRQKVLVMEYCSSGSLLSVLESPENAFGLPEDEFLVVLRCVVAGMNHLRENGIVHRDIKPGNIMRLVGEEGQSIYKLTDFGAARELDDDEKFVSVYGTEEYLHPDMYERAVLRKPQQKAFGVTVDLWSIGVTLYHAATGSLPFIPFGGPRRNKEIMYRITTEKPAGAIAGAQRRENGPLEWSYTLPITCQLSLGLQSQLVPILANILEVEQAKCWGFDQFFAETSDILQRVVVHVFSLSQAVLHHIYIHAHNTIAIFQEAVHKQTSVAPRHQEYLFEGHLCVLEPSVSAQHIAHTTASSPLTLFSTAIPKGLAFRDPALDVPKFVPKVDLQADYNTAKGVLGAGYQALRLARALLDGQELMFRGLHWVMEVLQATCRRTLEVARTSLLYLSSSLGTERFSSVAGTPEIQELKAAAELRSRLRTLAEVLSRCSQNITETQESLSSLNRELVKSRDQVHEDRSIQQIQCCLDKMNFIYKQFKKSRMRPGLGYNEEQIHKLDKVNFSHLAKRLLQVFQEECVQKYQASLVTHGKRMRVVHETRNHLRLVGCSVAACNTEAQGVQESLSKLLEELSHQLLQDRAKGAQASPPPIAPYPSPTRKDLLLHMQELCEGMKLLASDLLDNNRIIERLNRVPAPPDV
Method in brief: as §1

[6] = molecular target: T4, PIP5K2B (Homo sapiens, UniProt P78356); details: read-out: % control
T4 construct: purchased KinomeScan® (panel service)
T4 sequence (P78356 1-416): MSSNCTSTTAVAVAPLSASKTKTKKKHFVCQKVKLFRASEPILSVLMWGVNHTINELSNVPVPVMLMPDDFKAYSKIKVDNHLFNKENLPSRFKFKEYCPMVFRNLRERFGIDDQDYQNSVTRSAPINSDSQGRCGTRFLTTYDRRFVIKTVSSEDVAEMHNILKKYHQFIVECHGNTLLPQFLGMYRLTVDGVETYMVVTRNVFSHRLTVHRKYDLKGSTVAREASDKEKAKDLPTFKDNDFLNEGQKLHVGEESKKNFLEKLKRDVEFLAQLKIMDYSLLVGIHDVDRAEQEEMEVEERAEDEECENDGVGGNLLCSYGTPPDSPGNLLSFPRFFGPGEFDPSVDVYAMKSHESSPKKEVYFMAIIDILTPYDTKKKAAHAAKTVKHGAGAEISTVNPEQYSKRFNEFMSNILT
Method in brief: as §1

[7] = molecular target: T5, RSK3(Kin.Dom.2-C-terminal) (Homo sapiens, UniProt Q15349); details: read-out: % control
T5 construct: RSK3(Kin.Dom.2-C-terminal)
T5 sequence (Q15349 415-672 limits assumed): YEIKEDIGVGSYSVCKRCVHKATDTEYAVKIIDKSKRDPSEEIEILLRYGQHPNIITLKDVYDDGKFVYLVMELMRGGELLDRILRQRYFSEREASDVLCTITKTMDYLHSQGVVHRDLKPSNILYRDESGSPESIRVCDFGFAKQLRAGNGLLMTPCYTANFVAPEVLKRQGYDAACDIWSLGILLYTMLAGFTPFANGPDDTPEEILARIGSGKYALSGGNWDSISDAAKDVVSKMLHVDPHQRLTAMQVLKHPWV
Method in brief: as §1

[8] = molecular target: MELK (Homo sapiens, UniProt Q14680); details: read-out: % control
Chain of MELK (Q14680 whole entry): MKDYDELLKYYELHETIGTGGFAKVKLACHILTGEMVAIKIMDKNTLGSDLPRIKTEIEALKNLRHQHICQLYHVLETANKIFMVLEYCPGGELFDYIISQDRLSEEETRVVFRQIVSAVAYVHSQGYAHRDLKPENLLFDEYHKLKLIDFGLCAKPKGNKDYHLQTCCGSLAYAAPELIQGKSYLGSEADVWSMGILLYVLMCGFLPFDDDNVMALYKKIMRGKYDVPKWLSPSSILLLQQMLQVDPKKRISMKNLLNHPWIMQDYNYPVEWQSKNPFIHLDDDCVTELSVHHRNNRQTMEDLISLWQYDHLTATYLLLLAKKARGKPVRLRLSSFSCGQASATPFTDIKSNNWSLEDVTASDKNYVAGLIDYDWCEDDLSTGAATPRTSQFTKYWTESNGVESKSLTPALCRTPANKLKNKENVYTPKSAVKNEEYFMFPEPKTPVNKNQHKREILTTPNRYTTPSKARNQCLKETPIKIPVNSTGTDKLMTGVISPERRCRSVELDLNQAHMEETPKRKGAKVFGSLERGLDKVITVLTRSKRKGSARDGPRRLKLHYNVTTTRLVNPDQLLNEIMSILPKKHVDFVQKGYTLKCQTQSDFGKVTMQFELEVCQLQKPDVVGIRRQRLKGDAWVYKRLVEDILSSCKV
Method in brief: as §1

[9] = molecular target: BRK (Homo sapiens, UniProt Q13882); details: read-out: % control
Chain of BRK (Q13882 whole entry): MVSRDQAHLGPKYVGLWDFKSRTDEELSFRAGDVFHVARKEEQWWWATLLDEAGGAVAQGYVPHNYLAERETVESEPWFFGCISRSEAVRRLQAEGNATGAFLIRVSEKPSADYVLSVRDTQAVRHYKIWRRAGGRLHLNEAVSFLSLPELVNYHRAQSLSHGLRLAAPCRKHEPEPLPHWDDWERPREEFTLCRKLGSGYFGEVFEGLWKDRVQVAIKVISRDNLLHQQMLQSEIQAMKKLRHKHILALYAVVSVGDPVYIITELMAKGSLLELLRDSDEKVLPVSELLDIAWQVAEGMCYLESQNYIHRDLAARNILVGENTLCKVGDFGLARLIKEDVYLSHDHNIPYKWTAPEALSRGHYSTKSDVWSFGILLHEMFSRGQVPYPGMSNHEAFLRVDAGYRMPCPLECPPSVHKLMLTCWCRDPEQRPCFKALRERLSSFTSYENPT
Method in brief: as §1

[10] = molecular target: CSNK1G3 (Homo sapiens, UniProt Q9Y6M4); details: CSNK1G3, 1 μM; read-out: % control
Chain of CSNK1G3 (Q9Y6M4 whole entry): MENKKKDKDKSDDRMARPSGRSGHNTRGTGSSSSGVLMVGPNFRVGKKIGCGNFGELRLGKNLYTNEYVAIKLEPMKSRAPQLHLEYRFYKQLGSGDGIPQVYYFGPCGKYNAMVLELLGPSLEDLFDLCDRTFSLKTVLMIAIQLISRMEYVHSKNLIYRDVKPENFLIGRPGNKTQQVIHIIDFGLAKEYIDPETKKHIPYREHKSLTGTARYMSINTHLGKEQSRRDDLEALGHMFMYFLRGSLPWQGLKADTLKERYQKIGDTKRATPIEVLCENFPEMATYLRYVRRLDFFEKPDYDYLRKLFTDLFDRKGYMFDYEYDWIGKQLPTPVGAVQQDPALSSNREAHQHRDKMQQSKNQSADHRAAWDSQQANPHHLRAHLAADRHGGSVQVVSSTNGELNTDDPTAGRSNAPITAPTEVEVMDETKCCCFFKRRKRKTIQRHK
Method in brief: as §1

[11] = molecular target: T6, PIK3CA (Homo sapiens, UniProt P42336); details: read-out: % control
T6 construct: purchased KinomeScan® (panel service)
T6 sequence (P42336 whole entry): as the sequence (P42336 whole entry E542K) above, with K542E counted along it
Method in brief: as §1

Chain of PCTK1 (Q00536 whole entry): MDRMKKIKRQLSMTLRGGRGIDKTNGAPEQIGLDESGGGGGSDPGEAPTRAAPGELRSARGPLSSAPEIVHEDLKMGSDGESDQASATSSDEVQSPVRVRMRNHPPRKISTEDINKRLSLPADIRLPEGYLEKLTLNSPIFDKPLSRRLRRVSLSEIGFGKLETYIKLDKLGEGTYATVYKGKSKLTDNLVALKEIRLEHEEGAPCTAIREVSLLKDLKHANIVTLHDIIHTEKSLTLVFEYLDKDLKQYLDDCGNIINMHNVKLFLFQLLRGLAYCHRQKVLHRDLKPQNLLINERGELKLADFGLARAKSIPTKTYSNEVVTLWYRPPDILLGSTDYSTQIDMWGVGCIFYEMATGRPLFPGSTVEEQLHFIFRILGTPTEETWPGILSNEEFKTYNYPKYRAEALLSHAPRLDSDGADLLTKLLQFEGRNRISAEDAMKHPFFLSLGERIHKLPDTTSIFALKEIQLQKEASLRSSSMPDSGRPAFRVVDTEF

SMILES | remaining binding at 1 µM [1] [%] | remaining binding at 1 µM [2] [%] | remaining binding at 1 µM [3] [%] | remaining binding at 1 µM [4] [%] | remaining binding at 1 µM [5] [%] | remaining binding at 1 µM [6] [%] | remaining binding at 1 µM [7] [%] | remaining binding at 1 µM [8] [%] | remaining binding at 1 µM [9] [%] | remaining binding at 1 µM [10] [%] | remaining binding at 1 µM [11] [%]
CNc1c(-c2cnn([C@H]3CCN(C(C)=O)C[C@@H]3F)c2)cnc2[nH]cc(Cl)c12 [Compound 77, 1-((3S,4S)-4-(4-(3-chloro-4-(methylamino)-1H-pyrrolo[2,3-b]pyridin-5-yl)-1H-pyrazol-1-yl)-3-fluoropiperidin-1-yl)ethan-1-one] | 85 | 95 | 100 | 43 | 64 | 3.4 | 100 | 20 | 95 | 24 | 100
CNc1c(-c2ccc(C(=O)N3CCC(N4CCOCC4)CC3)cc2)cnc2[nH]cc(Cl)c12 [Compound 96, (4-(3-chloro-4-(methylamino)-1H-pyrrolo[2,3-b]pyridin-5-yl)phenyl)(4-morpholinopiperidin-1-yl)methanone] | 86 | 100 | 100 | 30 | 68 | 4.9 | 78 | 16 | 78 | 16 | 100
O=C(c1ccc(-c2cnc3[nH]cc(Cl)c3c2NC2CCCC2)cc1)N1CCC(N2CCOCC2)CC1 [Compound 101, (4-(3-chloro-4-(cyclopentylamino)-1H-pyrrolo[2,3-b]pyridin-5-yl)phenyl)(4-morpholinopiperidin-1-yl)methanone] | 100 | 94 | 98 | 65 | 99 | 12 | 77 | 30 | 86 | 93 | 99
